pEC50, pIC50: −log10 of the molar value. Activity calls are given as the source filed them. No cut-off for these calls is given here.
How the values were obtained:
[1] = biological target: Polymerase acidic protein (Influenza A virus (A/Puerto Rico/8/1934(H1N1)), UniProt P03433); experiment: Inhibition of Influenza A virus N-terminal domain of PA endonuclease using 6FAM-TGGCAATATCAGCTCCACA-MGBNFQ as fluorescent substrate by FRET analysis
[2] = Selectivity index, ratio of CC50 for cytotoxicity against MDCK cells to EC50 for antiviral activity against Influenza A virus A/WSN/33(H1N1) infected in MDCK cells; type: toxicity, cell-based; settings: dog, read-out: Ratio CC50/EC50
[3] = tested on: Influenza A virus; experiment: Antiviral activity against Influenza A virus A/WSN/33(H1N1) infected in MDCK cells assessed as reduction in virus induced cytopathic effect measured 48 hrs post infection by MTT assay; type: functional, organism-based
[4] = Cytotoxicity against MDCK cells assessed as reduction in cell viability incubated for 48 hrs by MTT assay; type: toxicity, cell-based, Canis lupus familiaris; settings: dog
[5] = tested on: Influenza A virus; experiment: Antiviral activity against Influenza A virus A/WSN/33(H1N1) infected in human A549 cells assessed as reduction in nucleoprotein expression at 5 to 20 uM measured 24 hrs post infection by Western blot analysis; type: functional, organism-based; settings: dose 5-20 µM
[6] = tested on: Influenza A virus; experiment: Antiviral activity against Influenza A virus A/WSN/33(H1N1) infected in human A549 cells assessed as reduction in nucleoprotein mRNA expression at 5 to 20 uM measured 24 hrs post infection by qRT-PCR analysis; type: functional, organism-based; settings: dose 5-20 µM
[7] = tested on: Influenza A virus; experiment: Antiviral activity against Influenza A virus A/WSN/33(H1N1) infected in MDCK cells assessed as inhibition of virus replication and translation by measuring reduction in nucleoprotein […] expression at 20 uM measured after 2 to 8 hrs by Western blot based time-of-addition assay; type: functional, organism-based; settings: time 2-8 hrs
[8] = tested on: Influenza A virus; experiment: Antiviral activity against Influenza A virus A/WSN/33(H1N1) infected in MDCK cells assessed as reduction in nucleoprotein […] expression at 20 uM measured after 0 to 10 hrs by Western blot based time-of-addition assay; type: functional, organism-based; settings: time 0-10 hrs
[9] = tested on: Influenza A virus; experiment: Antiviral activity against Influenza A virus A/WSN/33(H1N1) infected in MDCK cells assessed as distribution of PAN protein expression in nucleus and cytoplasm measured 24 hrs post infection by DAPI staining based microscopic analysis; type: functional, organism-based

Row | Compound | selectivity ratio [2] | pEC50 [3] | CC50 at 48 h [4] [µM] | further results
1 | O=C(O[C@@H]1Cc2c(O)cc(O)cc2O[C@@H]1c1cc(O)c(O)c(O)c1)c1cc(O)c(O)c(O)c1 [EPIGALOCATECHIN GALLATE] | – | – | – | pIC50 [1]: 5.23
2 | CCCOC(=O)[C@@H]1Cc2cc(O)c(O)cc2[C@H](Cc2ccc(O)c(O)c2)N1C=O | 9.7 | 5.11 | 75.1 | –
3 | O=CN1[C@H](C(=O)Oc2ccc(Br)cc2)Cc2cc(O)c(O)cc2[C@@H]1Cc1ccc(O)c(O)c1 | 9.8 | 5.49 | 32.1 | –
4 | COc1ccc(NC(=O)[C@@H]2Cc3cc(O)c(O)cc3[C@H](Cc3ccc(O)c(O)c3)N2C=O)cc1 | 8.3 | 5.21 | 50.9 | –
5 | COC(=O)[C@@H]1Cc2cc(O)c(O)cc2[C@H](Cc2ccc(O)c(O)c2)N1C(=O)C(F)(F)F | 11.3 | 5.17 | 76.4 | pIC50 [1]: 6.30
6 | O=CN1[C@H](C(=O)Oc2ccc(Cl)cc2)Cc2cc(O)c(O)cc2[C@@H]1Cc1ccc(O)c(O)c1 | 15 | 5.41 | 57.6 | –
7 | O=CN1[C@H](C(=O)Oc2ccccc2Br)Cc2cc(O)c(O)cc2[C@@H]1Cc1ccc(O)c(O)c1 | 17.8 | 5.49 | 57.1 | pIC50 [1]: 6.59
8 | O=CN1[C@H](C(=O)Oc2cccc(F)c2)Cc2cc(O)c(O)cc2[C@@H]1Cc1ccc(O)c(O)c1 | 11.8 | 5.33 | 55.6 | –
9 | O=CN1[C@H](C(=O)Oc2ccccc2F)Cc2cc(O)c(O)cc2[C@@H]1Cc1ccc(O)c(O)c1 | 11.7 | 5.28 | 61.2 | pIC50 [1]: 6.43
10 | O=CN1[C@H](C(=O)Oc2c(Cl)cccc2Cl)Cc2cc(O)c(O)cc2[C@@H]1Cc1ccc(O)c(O)c1 | 9.6 | 5.59 | 24.8 | –
11 | CCC(=O)N1[C@H](C(=O)OC)Cc2cc(O)c(O)cc2[C@@H]1Cc1ccc(O)c(O)c1 | – | < 5.00 | > 100 | –
12 | CN(Cc1ccccc1)C(=O)[C@@H]1Cc2cc(O)c(O)cc2[C@H](Cc2ccc(O)c(O)c2)N1C=O | 10.6 | 5.06 | 91.9 | –
13 | O=CN1[C@H](C(=O)O)Cc2cc(O)c(O)cc2[C@@H]1Cc1ccc(O)c(O)c1 | – | < 4.70 | > 100 | –
14 | CCC(CC)[C@H](NC(C)=O)[C@@H]1[C@H](O)[C@@H](C(=O)O)C[C@H]1NC(=N)N [PERAMIVIR ANHYDROUS] | > 19 | – | > 100 | –
15 | COc1ccc(CNC(=O)[C@@H]2Cc3cc(O)c(O)cc3[C@H](Cc3ccc(O)c(O)c3)N2C=O)cc1 | – | < 5.00 | > 100 | –
16 | O=CN1[C@H](C(=O)Oc2cccc(Cl)c2)Cc2cc(O)c(O)cc2[C@@H]1Cc1ccc(O)c(O)c1 | 13.8 | 5.22 | 84.3 | –
17 | O=CN1[C@H](C(=O)Nc2ccccc2)Cc2cc(O)c(O)cc2[C@@H]1Cc1ccc(O)c(O)c1 | – | < 5.00 | > 100 | –

Row | Compound | selectivity ratio [2] | pEC50 [3] | CC50 at 48 h [4] [µM] | further results
18 | O=CN1[C@H](C(=O)Oc2ccccc2)Cc2cc(O)c(O)cc2[C@@H]1Cc1ccc(O)c(O)c1 | 10.2 | 5.12 | 77.7 | pIC50 [1]: 6.35
19 | O=CN1[C@H](C(=O)Nc2ccc(Cl)cc2)Cc2cc(O)c(O)cc2[C@@H]1Cc1ccc(O)c(O)c1 | > 12.7 | 5.10 | > 100 | –
20 | COC(=O)[C@@H]1Cc2cc(O)c(O)cc2[C@H](Cc2ccc(O)c(O)c2)N1C(=O)CNC(C)=O | – | < 4.70 | – | –
21 | COC(=O)[C@@H]1Cc2cc(O)c(O)cc2[C@H](Cc2ccc(O)c(O)c2)N1C(C)=O | > 13.1 | 5.12 | > 100 | pIC50 [1]: 6.28
22 | COC(=O)[C@@H]1Cc2cc(O)c(O)cc2[C@H](Cc2ccc(O)c(O)c2)N1C=O | > 14.2 | 5.15 | > 100 | pIC50 [1]: 6.17
23 | CCOC(=O)[C@@H]1Cc2cc(O)c(O)cc2[C@H](Cc2ccc(O)c(O)c2)N1C=O | > 14.5 | 5.16 | > 100 | –
24 | O=CN1[C@H](C(=O)Oc2ccccc2Cl)Cc2cc(O)c(O)cc2[C@@H]1Cc1ccc(O)c(O)c1 | > 22.2 | 5.35 | > 100 | pIC50 [1]: 6.55; Activity [5]: Active; Activity [6]: Active; Activity [7]: Active; Activity [8]: Active; Activity [9]: Active
25 | CCN(CC)C(=O)[C@@H]1Cc2cc(O)c(O)cc2[C@H](Cc2ccc(O)c(O)c2)N1C=O | – | < 5.00 | > 100 | –
26 | CN1CCc2cc(O)c(O)cc2C1Cc1ccc(O)c(O)c1 (racemic) | – | < 4.70 | > 100 | pIC50 [1]: 5.73
27 | CN(C)C(=O)[C@@H]1Cc2cc(O)c(O)cc2[C@H](Cc2ccc(O)c(O)c2)N1C=O | – | < 5.00 | > 100 | –
28 | O=CN1[C@H](C(=O)Oc2ccc(Cl)cc2Cl)Cc2cc(O)c(O)cc2[C@@H]1Cc1ccc(O)c(O)c1 | 5.7 | 5.42 | 21.4 | –
29 | COC(=O)[C@@H]1Cc2cc(O)c(O)cc2[C@H](Cc2ccc(O)c(O)c2)N1C(=O)CCl | 5.3 | 5.19 | 34.5 | –
30 | O=CN1[C@H](C(=O)NCc2cccs2)Cc2cc(O)c(O)cc2[C@@H]1Cc1ccc(O)c(O)c1 | – | < 5.00 | > 100 | –
31 | O=CN1[C@H](C(=O)NCc2ccccc2)Cc2cc(O)c(O)cc2[C@@H]1Cc1ccc(O)c(O)c1 | – | < 5.00 | > 100 | –
32 | CCCC(=O)N1[C@H](C(=O)OC)Cc2cc(O)c(O)cc2[C@@H]1Cc1ccc(O)c(O)c1 | – | < 5.00 | > 100 | –
33 | O=CN1[C@H](C(=O)NCc2ccco2)Cc2cc(O)c(O)cc2[C@@H]1Cc1ccc(O)c(O)c1 | – | < 5.00 | > 100 | –
